# Experimental data from patent US20250296938A1, “Compounds that Interact with the Ras Superfamily for the Treatment of Cancers, Inflammatory Diseases, Rasopathies, and Fibrotic Disease” (SHY Therapeutics, LLC, priority 2018, published 2025).
# Where two headings read alike, the source gives them in different places.
# System: MIA PaCa-2 pancreatic cancer cell line
# Experiment: Cell proliferation assay (DAPI)
# Assay type: cell-based
# Conditions: Homo sapiens; for inhibition at 10 µM: read-out: % Inhibition of cell proliferation, MIA PaCa-2 % inh
# Method: Cell lines: Human NSCLC cells NCI-H1975 and NCI-H1299, and tumor-derived pancreatic cancer cell lines Panc-1, MIA-PACA2, and BxPC3, were all purchased from American Type Culture Collection and grown in complete RPMI medium (BxPC3, NCI-H1975 and NCI-H1299) or DMEM-High Glucose (Panc1 and MIA-PaCa-2), supplemented with penicillin (100 U/mL), streptomycin (100 μg/mL), and 10% heat-inactivated FBS at 37° C. in a humidified incubator with 5% CO2.
# Method: Cells were plated at 2000 to 5000 cells/well density in 96-wells plate and cultured ON. Small molecules to be tested were added to the cells in the final concentration of 10 µM in the presence of 0.3% DMSO and 10% FBS, and incubated for 2-4 days at 37° C. in a humidified incubator with 5% CO2. For IC50 value determination, serial dilutions of compounds were added to cells under the same conditions.
# Assay: At the end of the incubation period, cell cultures were fixed with a 50-50 mixture (v/v) acetone-methanol for 10 minutes at −20° C., followed by rehydration in PBS for 10 minutes at room temperature. DNA total content was determined by staining cells with DAPI (1 ug/ml) in PBS for 10 minutes at room temperature, followed by 3 washes with PBS. After staining, DAPI fluorescence was recorded (358 nm excitation/461 nm emission) with the 96-well plate reader Molecular Devices Spectramax M3; degree of small molecule-dependent proliferation inhibition was calculated from raw data.
SMILES,"inhibition at 10 µM (2-4 days, MIA PaCa-2) [%]",inhibition at 10 µM (MIA PaCa-2 (Table 5A)) [%],IC50 (MIA PaCa-2 (Table 5A)) [µM],IC50 (MIA PaCa-2) [µM]
CN(Cc1ccccc1)Cc1nc(-c2ccccn2)nc(O)c1O,0,,,
Cn1ccc(-c2sc3nc(-c4nccn4C)nc(N[C@@H]4CC[C@H](O)C4)c3c2-c2ccccc2)n1 (racemic) [drawing 644],,26 to 50,> 1,
COc1cccc(-c2csc3c(O)nc(-c4nccn4C)nc23)c1Cl [drawing 528],76 to 100,,,> 1
Cn1ccnc1-c1nc(O)c2scc(-c3ccccn3)c2n1 [drawing 529],76 to 100,,,
Oc1nc(-c2ncc3n2CCCC3)nc2c(-c3ccccn3)csc12 [drawing 530],76 to 100,,,
Oc1nc(-c2cn3ccccc3n2)nc2c(-c3ccccn3)csc12 [drawing 531],76 to 100,,,
COCCn1ccnc1-c1nc(O)c2scc(-c3ccccn3)c2n1 [drawing 532],76 to 100,,,
Cc1cc(Cn2ccnc2-c2nc(O)c3scc(-c4ccccn4)c3n2)on1 [drawing 533],76 to 100,,,
Oc1nc(-c2nccn2Cc2ccccn2)nc2c(-c3ccccn3)csc12 [drawing 534],76 to 100,,,
COc1cccc(Cn2ccnc2-c2nc(O)c3scc(-c4ccccn4)c3n2)c1 [drawing 535],76 to 100,,,
Cc1cnc(-c2nc(O)c3scc(-c4ccccn4)c3n2)n1C [drawing 536],76 to 100,,,
Cc1cn(C)c(-c2nc(O)c3scc(-c4ccccn4)c3n2)n1 [drawing 537],76 to 100,,,
Oc1nc(-c2ncc3ccccn23)nc2c(-c3ccccn3)csc12 [drawing 538],76 to 100,,,
Oc1nc(-c2cn3cccnc3n2)nc2c(-c3ccccn3)csc12 [drawing 539],0,,,
Oc1nc(-c2cn(-c3ccccc3)cn2)nc2c(-c3ccccn3)csc12 [drawing 540],76 to 100,,,
COc1ccc(Cn2cnc(-c3nc(O)c4scc(-c5ccccn5)c4n3)c2)cc1 [drawing 541],76 to 100,,,
COCCCN(C)c1nc(-c2nccn2C)nc2sc(-c3ccn(C)n3)c(-c3ccccc3)c12 [drawing 543],76 to 100,,,> 1
Cn1ccc(-c2sc3nc(-c4nccn4C)nc(NC4CCOCC4)c3c2-c2ccccc2)n1 [drawing 546],1 to 25,,,> 1
Cn1ccc(-c2sc3nc(-c4nccn4C)nc(N4CCC5(CCOC5)C4)c3c2-c2ccccc2)n1 (stereo not shown) [drawing 551],26 to 50,,,> 1
COC1CCN(c2nc(-c3nccn3C)nc3sc(-c4ccn(C)n4)c(-c4ccccc4)c23)CC1 [drawing 552],76 to 100,,,> 1
COCCCNc1nc(-c2nccn2C)nc2sc(-c3ccn(C)n3)c(-c3ccc(OC)cc3)c12 [drawing 553],76 to 100,,,> 1
COCC(C)Nc1nc(-c2nccn2C)nc2sc(-c3ccn(C)n3)c(-c3ccc(OC)cc3)c12 (stereo not shown) [drawing 554],76 to 100,,,> 1
COc1ccc(-c2c(-c3ccn(C)n3)sc3nc(-c4nccn4C)nc(N4CCC(OC)C4)c23)cc1 (stereo not shown) [drawing 555],76 to 100,,,> 1
COC1CCN(c2nc(-c3nccn3C)nc3sc(-c4ccccc4Cl)c(-c4cscn4)c23)C1 (stereo not shown) [drawing 557],76 to 100,,,
COc1cccc(-c2sc3nc(-c4nccn4C)nc(N4CCC(OC)C4)c3c2-c2cscn2)c1 (stereo not shown) [drawing 559],76 to 100,,,> 1
COCCNc1nc(-c2nccn2C)nc2sc(-c3cc(OC)ccc3Cl)c(-c3ccc(OC)cc3)c12 [drawing 563],76 to 100,,,> 1
